From ChEMBL document CHEMBL1157539, “Thousands of chemical starting points for antimalarial lead identification” (Nature, 2010)

Test system: Plasmodium falciparum
Assay: GSK_TCMDC: Inhibition of Plasmodium falciparum 3D7 in whole erythrocytes, using parasite LDH activity as an index of growth.
Type: functional, organism-based

Structure (SMILES) | XC50 (Plasmodium falciparum, 3D7) [nM] | XC50 [nM]
O=C(Nc1cccc(C(F)(F)F)c1)Nc1ccc(Cl)c(Cl)c1 | 735 | –
COc1c(C2CCN(CCCCNC(=O)C=Cc3cc4cc(Cl)ccc4o3)CC2)ccc2c1CCCC2 | 1310 | –
COc1ccc2nc(N(CCCn3ccnc3)C(=O)C=Cc3cccs3)sc2c1 | 1050 | –
O=C(Nc1cccc(N2CCC(NCc3cnn(-c4cccc(F)c4)c3)CC2)c1)c1ccncc1 | 1390 | –
CCOc1cc(C)ccc1C1CCN(CCCCNC(=O)c2ccc(-c3ccc(C(F)(F)F)cn3)cc2)CC1 | 787 | –
O=[N+]([O-])c1ccc(Oc2ccccc2CNCC2CCN(CC3CCCCC3)CC2)cc1 | 903 | –
Cc1cc(NC2CCCC2)nc(Nc2ccccc2)n1 | 985 | –
NS(=O)(=O)c1ccc(CNc2ccc3ncc(-c4ccc(OC(F)(F)F)cc4)n3n2)cc1 | 578 | –
CCCC(CCC)n1ccc2c3c(N)nc(N)nc3ccc21 | 4.9 | –
c1ccc(CN2CCC(NCc3ccccc3-c3cccc(CNCc4ccc5c(c4)OCO5)c3)CC2)cc1 | 573 | –
CC1CC(C)CN(CCCNc2ccc(C(=O)Nc3ccc(C(F)(F)F)cc3)cc2[N+](=O)[O-])C1 (configuration not stated) | 203 | –
CCCCCCN1CCCN(Cc2ccc(C(=O)Nc3ccc(C)c(F)c3)cc2)CC1 | 331 | –
COc1ccc(CC2(c3ccc(F)cc3)N=C(N)N(CCCc3ccccc3)C2=O)cc1 (configuration not stated) | 613 | –
c1cncc(CCNCc2cccc(-c3csc(-c4nc5ccccc5[nH]4)c3)c2)c1 | 704 | –
N=c1c(C(=O)NCc2ccccc2)cc2c(=O)n3ccccc3nc2n1CCc1ccccc1 | 535 | –
O=C(Nc1ccc(Cl)cc1)c1ccc(CN2CCCN(Cc3ccccc3)CC2)cc1 | 753 | –
CC(C)(C)c1ccc(CN2CCC(NC(=O)c3ccc(-c4ccccc4F)s3)CC2)cc1 | 1200 | –
O=C(NCCN1CCCC1)c1ccc(-c2ccc(-c3nc4cc(C(F)(F)F)ccc4[nH]3)s2)cc1 | 752 | –
CCN(CC)CCN(Cc1ccc(-c2ccc(C(F)(F)F)cc2)cc1)C(=O)Cn1c(CCc2cccc(F)c2F)nc(=O)c2ccc(C)cc21 | 668 | –
CCOc1ccc(C(=O)Nc2cc(Cl)ccc2O)cc1Cl | 705 | –
O=C(NC(CCCN1CCC2(CC1)OCc1ccccc12)c1ccc(Cl)c(Cl)c1)c1cc(C(F)(F)F)cc(C(F)(F)F)c1 (configuration not stated) | 543 | –
COc1ccc(-c2cccc(NC(=O)c3ccc(F)cc3)c2)cc1CNC(C)C | 1380 | –

Structure (SMILES) | XC50 (Plasmodium falciparum, 3D7) [nM] | XC50 [nM]
Cc1cccc(N2CCN(Cc3cc(Cl)ccc3O)CC2)c1C | 771 | –
CCCCCCN1CCC(NCc2ccc(OCCN3CCCC3)cc2)CC1 | 719 | –
O=C(NC1CCC(CN2CCC(c3c[nH]c4ccccc34)CC2)CC1)c1cn(Cc2ccccc2)c2ccccc12 (configuration not stated) | 1130 | –
COc1ccc(NC(=O)c2ccc(-c3cc(NC(=O)c4ccnc(N5CCCC5)c4)ccc3C)s2)cc1N1CCN(C)CC1 | 245 | –
COc1ccc(C=CC(=O)N2CCC(CN3CCC(c4c[nH]c5ccccc45)CC3)CC2)cc1OC | 1070 | –
CCCC(C)Nc1nc(C)cc(N[C@@H](CC(C)C)C(=O)NCc2ccc(C)cc2)n1 (some centres not stated) | 1010 | –
CCOc1cc(C)ccc1C1CCN(CCCCNC(=O)c2nc(-c3ccc(C(F)(F)F)cc3)[nH]c2C)CC1 | 729 | –
CC(C)N1CCC(N(Cc2ccc(-c3ccc(C(F)(F)F)cc3)cc2)C(=O)CCCn2c(CCc3cccc(F)c3F)nc(=O)c3ccccc32)CC1 | 972 | –
O=C(Nc1ccc(F)cc1)NC1CCN(c2ccnc3cc(Cl)ccc23)CC1 | 408 | –
CN1CCN(c2ccc(Nc3ncc(Cl)c(Nc4cccnc4C(N)=O)n3)cc2)CC1 | 153 | –
O=C(Nc1cccc(-c2cccc(-c3nc4cc(F)ccc4[nH]3)c2)c1)c1csnn1 | 788 | –
CC(=O)c1ccc(NC(=O)NNC(=O)c2ccc(CCN3CCC(c4nc(COCC(F)(F)F)c(-c5ccc(F)cc5)o4)CC3)cc2)cc1 | 835 | –
COC(=O)c1ccc(CC(C)NCC(O)c2cccc(C(F)(F)F)c2)cc1 (configuration not stated) | 1150 | 974
O=c1c2ccccc2nc(/C=C/c2ccc([N+](=O)[O-])cc2)n1-c1ccccn1 | 382 | –
O=C(/C=C/c1ccc(Cl)c(Cl)c1)NCCCCN1CCC(c2c[nH]c3ccccc23)CC1 | 859 | –
CCn1c(-c2nonc2N)nc2cnc(Oc3cccc(NC(=O)c4ccc(OCCN(C(C)C)C(C)C)cc4)c3)cc21 | 780 | –
CC(=O)c1c(Cc2cccc(C(F)(F)F)c2)c[nH]c1C | 346 | –
CCC(CSC1CCCCC1)N(C)CCN(C)C(CC)CSC1CCCCC1 (configuration not stated) | 314 | –
OCC1CCN(Cc2cccc(-c3cccc(-c4nc5cc(C(F)(F)F)ccc5[nH]4)c3)c2)CC1 | 506 | –
O=C(/C=C/c1cccs1)NCC(NCCCNc1cc(=O)c2ccccc2[nH]1)c1cc(Br)cc(Br)c1 (configuration not stated) | 888 | –
O=C(Nc1cccc(C(F)(F)F)c1)NC1CCN(c2ccnc3cc(Cl)ccc23)CC1 | 289 | –
CN1CCN(c2ccnc3ccc(NC(=O)Nc4cccc(C#N)c4)cc23)CC1 | 799 | –

Structure (SMILES) | XC50 (Plasmodium falciparum, 3D7) [nM] | XC50 [nM]
CN(C)Cc1ccc(-c2cc3c(Nc4ccc(OCc5cccc(F)c5)c(Cl)c4)ncnc3s2)[nH]1 | 824 | –
Cc1cc(NC(=O)Nc2ccc(C#N)cc2)c2ccccc2n1 | 567 | –
COc1ccccc1C(C)NCC(=O)Nc1cccc(C(=O)Nc2cccc(C(F)(F)F)c2)c1 (configuration not stated) | 1530 | –
COc1ccc(NC(=O)Nc2ccc(C)c(-c3ccc(C(=O)NCCN4CCCC4)cc3)c2)cc1 | 902 | –
CCOC(=O)C(C(C)=O)C(c1ccccc1)C(C(C)=O)C(=O)OCC (configuration not stated) | 748 | –
COc1ccc(C(=O)C2CC2CN2CC=C(c3c[nH]c4ccc(OC)nc34)CC2)cc1 (configuration not stated) | 479 | –
OCC1CCN(Cc2cccc(-c3ccc(-c4nc5cc(F)ccc5[nH]4)cc3)c2)CC1 | 720 | –
CC[C@@]1(O)C(=O)OCc2c1cc1n(c2=O)Cc2c-1nc1cc3c(cc1c2CN1CCN(C)CC1)OCCO3 | 446 | –
O=C(Nc1ccc(-c2ccc(-c3nc4cc(C(F)(F)F)ccc4[nH]3)s2)cc1)c1ccoc1 | 854 | –
CCCCSc1nc2c(c(=O)n1Cc1ccco1)C1(CCCCC1)Cc1ccccc1-2 | 958 | –
CCCCCN1CCCC(CNS(=O)(=O)c2ccc(C(=O)Nc3ccc(C(F)(F)F)cc3)cc2)C1 (configuration not stated) | 916 | –
O=C(Nc1ccc(Oc2cccnc2)cc1)C1CCN(Cc2cc(Cl)ccc2O)CC1 | 1350 | –
OC(CN(Cc1ccccc1)Cc1ccccc1)Cn1c2ccc(Cl)cc2c2cc(Cl)ccc21 (configuration not stated) | 995 | –
C[C@H](Cc1ccc(OCCCCCCOc2ccc(C[C@@H](C)N[C@H](C)c3ccccc3)cc2)cc1)NC[C@H](O)c1cccc(Cl)c1 | 241 | –
CCNc1cc(C(=O)N[C@@H](Cc2ccccc2)[C@H](O)CNC(C)Cc2cccc(Cl)c2)cc(N2CCCCS2(=O)=O)c1 (some centres not stated) | 496 | –
CC(=O)Nc1ccc(C(=O)Nc2cccc(-c3ccc(-c4nc5cc(F)ccc5[nH]4)cc3)c2)cn1 | 174 | –
Cc1cccc2nc(-c3cccc(-c4cccc(CNCc5cccc(N)c5)c4)c3)[nH]c12 | 543 | –
CN1CCCC1CCNCc1ccc(-c2ccc(CNCCc3ccccc3)cn2)cc1 (configuration not stated) | 1110 | –
O=C(C=Cc1ccc(Cl)c(Cl)c1)NCCCCCN1CCC(CCNC(=O)c2ccc3c(c2)OCO3)CC1 | 693 | –
N=C(N)CCN(Cc1ccccc1)c1ccc(Cl)cc1 | 257 | –
CC1CCc2c(C(=O)Nc3c(F)cc(F)cc3Br)csc2C1 (configuration not stated) | 752 | –
Cn1ccnc1CCC(=O)Nc1ccc(Cl)cc1C(=O)Nc1ccc(Cl)cc1 | 1560 | –

Structure (SMILES) | XC50 (Plasmodium falciparum, 3D7) [nM] | XC50 [nM]
CCCCOc1ccc(N2C(N)=NC(N)=NC2(C)C)cc1 | 215 | –
Cc1cc(C)c2nc(N3CCC(C(=O)NCCCN4CCC(N5CCCCC5)CC4)CC3)sc2c1 | 838 | –
COc1cccc(C2CCN(CCN3CCC(NC(=O)c4ccc(-c5ccc(C#N)cc5)cc4)CC3)CC2)c1 | 699 | –
CC(C)c1ccc2oc(-c3ccc(NC(=O)c4ccc([N+](=O)[O-])o4)cc3)nc2c1 | 340 | –
CN1CCN(c2cccc(Nc3nccc(NCC(O)c4ccccc4)n3)c2)CC1 (configuration not stated) | 718 | –
N#Cc1ccc(N2C[C@@H](OCc3ccccc3)C[C@H]2C(=O)NCCC(c2ccccc2)c2ccccc2)c2ccccc12 | 856 | –
OC(CNC1CCCCCC1)c1ccc(Cl)c(Cl)c1 (configuration not stated) | 688 | –
CC[C@H]1CN2CC[C@@H]1C[C@H]2[C@H](O)c1cc(N2CCCC(C)(C)C2)nc2ccc(OC)cc12 | 337 | –
CC(C)(C)Nc1cc(C2CC2)nc(-c2ccccn2)n1 | 679 | –
COc1cc(CN2CCN(c3ccnc(N(C)C4CCN(C)CC4)n3)CC2)cc(Cl)c1O | 784 | –
CN(C)CCCNc1nccc(N(C)c2ccc(NC(=O)Nc3cc(C(F)(F)F)ccc3F)cc2)n1 | 980 | –
COc1ccc(C2CC(c3cccs3)=NN2C(=O)CNc2ccccc2F)cc1OC (configuration not stated) | 631 | –
CN1CCN(c2cc(NC(=O)c3ccc(-c4ccc(Cl)cc4)cc3)ccc2Cl)CC1 | 613 | –
CCCOc1ccc(-c2nonc2NC(=O)c2cccc(OC)c2)cc1OCCC | 1150 | –
Cc1cc(C)c(NC(=O)NC2CCN(CCCCCNC(=O)/C=C/c3ccc(Cl)c(Cl)c3)CC2)c(C)c1 | 797 | –
Cc1cc(-c2cc(Cl)ccc2Cl)no1 | 168 | –
N=C(N)NCCN(Cc1ccccc1)c1ccc(Cl)cc1 | 48 | –
CN1CCC(NCc2cccc(-c3ccc(S(=O)(=O)NCc4ccccc4)c(F)c3)c2)CC1 | 325 | –
Cc1c(Cc2ccc(C(C)C)cc2)cnc2nc(N)nc(N)c12 | 298 | –
CCc1c(CCNCCCCCCNCc2ccc3c(c2CC)OCO3)ccc(OC)c1OC | 246 | –
